# According to patent US11753445B2, “Therapeutic peptides” (COHBAR, INC., priority 2016, dated 2023):
# Columns and labels:
# Assay type in all cases: cell-based
# 3T3-L1 Adipocytes [1] = experiment: Free fatty acid levels in cultured mouse 3T3-L1 adipocytes, isoproterenol stimulated (Example 2); conditions: isoproterenol 1 nM; for Free Fatty Acid Levels in 3T3-L1 Adipocytes Expressed as a Percent of Isoproterenol Control: Percent of Control Value: test peptides 25 μM
# Summary of the method: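 Release of free fatty acids, read at 540 nm, was stimulated with 1 nM isoproterenol for 3 h in mouse 3T3-L1 adipocytes (12–17 days of differentiation). Cells were pre-exposed to 25 μM peptide for 18–20 h plus 1 h, with peptide kept in during stimulation. Values are background-subtracted and normalised to isoproterenol alone.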
# 3T3-L1 Adipocytes [2] = experiment: Free fatty acid levels in cultured mouse 3T3-L1 adipocytes, forskolin stimulated (Example 3); conditions: forskolin 1 μM; for Free Fatty Acid Levels in 3T3-L1 Adipocytes Expressed as a Percent of Forskolin Control: Percent of Control Value: test peptides 25 μM
# Experimental: Mouse 3T3-L1 cells were seeded at 1,000-20,000 cells per well on 96-well, 48-well, or 24-well plates in Pre-adipocyte Medium (Zen-Bio, Durham, N.C.) and grown to confluence at 37° C. in a humidified atmosphere of 5% CO2/95% air. Two days after confluence, cells were placed in Adipocyte Differentiation Medium (Zen-Bio, Durham, N.C.) and cultured for three additional days at 37° C. in a humidified atmosphere of 5% CO2/95% air. The culture media was then replaced with Adipocyte Maintenance Medium (Zen-Bio) and the cells were maintained for an additional 9-14 days at 37° C. in a humidified atmosphere of 5% CO2/95% air with partial medium replacement every other day. Following 12-17 days of differentiation, test peptides were added at a final concentration of 25 μM and incubated for 18-20 hours in Adipocyte Maintenance Medium at 37° C. in a humidified atmosphere of 5% CO2/95%. After 18-20 hours, the media was exchanged with fresh Adipocyte Maintenance Medium containing test peptides and incubated for 1 h at 37° C. in a humidified atmosphere of 5% CO2/95%. After 1 h media was exchanged with Assay Buffer (Zen-Bio) containing forskolin (1 μM) (added to all samples except untreated controls) and test peptides. Cells were incubated for a further 3 hours at 37° C. in a humidified atmosphere of 5% CO2/95%. Free fatty acid concentrations in the media were determined using a Free Fatty Acid Assay Kit (Zen-Bio) according to the manufacturer's instructions using a plate reader (540 nm). Absorbance values were corrected for untreated background and expressed relative to forskolin treated cells. Treatment with forskolin (1 μM) alone was used as the free fatty acid level stimulatory control. The relative standard deviation of the forskolin control was <10%. […] Free fatty acid levels for insulin (100 nM) treatment were <9% of the forskolin control value.
# Human Primary Adipocytes = experiment: Free fatty acid levels in cultured human primary adipocytes, forskolin stimulated (Example 5); conditions: forskolin 1 μM; for Free Fatty Acid Levels in Human Primary Adipocytes Expressed as a Percent of Forskolin Control: Percent of Control Value: test peptides 25 μM
# Summary of the method: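 Differentiated human primary adipocytes (14–24 days) were exposed to peptides at 25 μM for 18–20 h and 1 h, then stimulated with 1 μM forskolin plus peptide for 3 h at 37 °C. Medium free fatty acids were measured colorimetrically (540 nm), background-corrected and expressed relative to forskolin-only cells.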
# [3] = insulin 100 nM, 3T3-L1 adipocytes
Substance,Free Fatty Acid Levels in 3T3-L1 Adipocytes Expressed as a Percent of Isoproterenol Control: Percent of Control Value (3T3-L1 Adipocytes [1]) [%],Free Fatty Acid Levels in 3T3-L1 Adipocytes Expressed as a Percent of Forskolin Control: Percent of Control Value (3T3-L1 Adipocytes [2]) [%],Free Fatty Acid Levels in Human Primary Adipocytes Expressed as a Percent of Forskolin Control: Percent of Control Value (Human Primary Adipocytes) [%],"Free fatty acid levels, % of the isoproterenol control value (3T3-L1 Adipocytes [1]; [3]) [%]","Free fatty acid levels, % of the forskolin control value (3T3-L1 Adipocytes [2]; [3]) [%]","Free fatty acid levels, % of the forskolin control value (Human Primary Adipocytes; insulin 100 nM, human primary adipocytes) [%]"
H-MRWQEMGYIFYPRNLR-OH [compound 213],48.1,36.0,90.8,,,
H-RWQEMQYIFYPR-OH [compound 211],29.9,33.7,90.1,,,
H-MRWQEMQYIFYPRALR-OH [compound 219],38.9,41.5,84.0,,,
H-MRWQEMNYIFYPR-OH [compound 208],57.9,62.4,90.2,,,
H-MRWQEMGYIFYPRKLR-OH [compound 2],63.3,59.2,111,,,
H-MRWQEMGYIFYPRKLA-OH [compound 21],45.1,56.0,113,,,
Insulin [reference compound],,,,< 5,< 9,< 8
H-RWQEMNYIFYPR-OH [compound 210],44.6,29.2,95.2,,,
